Measurements taken from US8617614B2, “Sustained release preparation for tissue regeneration therapy” (Ono Pharmaceutical Co., Ltd., priority 2006, dated 2013).

Assays:
Type in all cases: in vivo
[1] = tested on: hippocampal CA1 region nerve cells; experiment: Number of nerve cells in hippocampal CA1 region, rat 4-VO model (Nissl staining)
[2] = tested on: STZ induced diabetes model; experiment: Nerve conduction velocity, STZ induced diabetes model; details: STZ rat, Test Group 3: 3 mg/kg oral twice daily
Experimental: Female Sprague-Dawley rats (8- to 11-week-old; Japan SLC, Inc.) were intraperitoneally administered 40 mg/kg of a citrate buffer (pH, approx. 4.5) of streptozotocin (STZ; Sigma). A normal control group was intraperitoneally given only the citrate buffer. Two weeks after STZ administration, and 4, 8 and 12 weeks after the start of test solution administration, the animals were anesthetized by the intraperitoneal administration of 30 to 45 mg/kg of pentobarbital. Fur was removed from the dorsolumbar region of the rat and the animal was immobilized in the prone position, following which a needle electrode for […] stimulation (NEC Medical Systems) was inserted near the sciatic nerve, a needle electrode for […] stimulation was inserted near the Achilles tendon on the same side, and a recording needle electrode (NEC Medical Systems) was inserted in the plantar muscle on the same side. After checking that the body temperature was in a range of 37 to 38° C., square-wave stimulation (0.5 Hz, 0.1 msec, submax voltage) to the distal and proximal stimulating electrodes was applied using an electrical stimulator (SEN-3301; Nihon Kohden Corporation). The evoked potential was led out via a measuring electrode, input through a bioelectric amplifier (AB-621G, Nihon Kohden Corporation) to an evoked electromyogram averaging program (MTS50061C, Medical Try System) and averaged ten times, and the nerve conduction velocity was computed from the respective distal and proximal conduction times and the electrode interval distances. Measurement was carried out on the left leg (treated side) and right leg (untreated side) in each test group, and the respective average values thereof used as the data. In Groups 2 to 5, the feeding blood sugar level two weeks after STZ administration was measured. Of rats with blood sugar levels above 300 mg/dL, severely diabetic rats were excluded therefrom, and the remaining rats were used as diabetes model animals. Groups were formed in such a way as to make the respective groups uniform with respect to nerve conduction velocity, blood sugar level and body weight. Administration was carried out in accordance with the intended route of administration for clinical use. In Test Group 3, forced administration was carried out orally using a disposable syringe barrel and a rat stomach probe. In Test Group 4, intramuscular administration was carried out uniformly at four places within the muscle along the sciatic nerve in the femoral portion of the left leg. For subcutaneous administration in test Group 5, the animals were ether anesthetized, and subcutaneous administration was carried out in the dorsal region using a disposable syringe barrel and a disposable 25 G syringe needle. The volume of solution administered was computed based on the latest body weight. The amount of microspheres administered indicates the amount of the present drug included.

[3] = tested on: rat common carotid artery occlusion-disobliteration (4-VO) model; experiment: Water maze learning ability, rat 4-VO model
Source text: Nine-week-old male Crlj:WI rats were intraperitoneally administered pentobarbital sodium and, while under anesthesia, were secured in the prone position to a brain stereotaxic instrument. An occipital incision was made in the skin and muscle layer of the neck region, the left and right pterygoid foramina of the first cervical vertebra were exposed, and the vertebral arteries were thermocoagulated by inserting the tip of a soldering iron into each pterygoid foramen, thereby permanently occluding the bilateral vertebral arteries. Next, a midline incision was made in the anterior region of the neck, the common carotid arteries on both sides were exposed and detached, a silicone tube was passed under the arteries and placed annularly around the arteries, following which the skin of the neck region was sutured together. On the day after vertebral arterial cauterization, the animals were anesthetized with diethyl ether, then immobilized in the supine position. Both common carotid arteries were exposed using the silicone tube that had been placed on the common carotid arteries in the neck region and were temporarily occluded for 10 minutes with Sugita clips, then reopened. Aside from ischemia and disobliteration, the same procedure was carried out also on a normal group ([…]).
• Test Group 1: 4-VO+medium, 8 days • Test Group 2: 4-VO+present drug, 10 mg/kg, twice daily, for 8 days • Test Group 3: 4-VO+present drug, 1 mg/kg, twice daily, for 42 days (evaluation of nerve cell number only) (2) Evaluation of number of nerve cells in CA1 region excised from brain (Groups 4 to 7) following measurement of water maze learning ability (Groups 4 to 7) • Test Group 4: normal (sham group)+medium, 42 days (normal control) • Test Group 5: 4-VO+medium, 42 days (solvent control) • Test Group 6: 4-VO+present drug, 10 mg/kg, twice daily for 42 days • Test Group 7: 4-VO+solvent for 8 days+present drug, 10 mg/kg, twice daily, for 34 days (evaluation of regenerative activity) (3) Pathology: Perfusion and fixing of the brain was carried out on day 8 in Test Groups 1 and 2, and on the day after the water maze learning ability test in Groups 4 to 7. The number of nerve cells was then counted by the same method as described above in Test 1. In Test Group 3, after drug administration was stopped, the brains were fixed at the same time as in Test Groups 4 to 7. (4) Measurement of Water Maze Learning Ability
Using Test Groups […], the […] were investigated with a Morris water maze in such a way as to avoid a bias between the groups.
A clear acrylic platform (about 12 cm in diameter and about 30 cm in height) which cannot be visually detected and a circular pool (about 148 cm in diameter and about 44 cm in height) made of gray vinyl chloride and filled with water (water temperature, 17 to 18° C.) to a height of about 32 cm so that the platform is hidden by the water were used.
The pool was divided into four quadrants, the platform was placed at the center of the fourth quadrant (about 36 cm from the center of the pool), and light bulbs were placed at the perimeter of the pool to provide a spatial reference.
Following the final drug dose, a drug-free period of at least 2 weeks was provided, after which the rat was placed in the pool from one of several points A to E with its head facing the circular pool wall, and the time it took to reach the platform (goal latency; seconds) was measured with a stopwatch (the measurement time was a maximum of 90 seconds). When the rat reached the platform within 90 seconds and remained on the platform for 30 seconds, it was judged to be aware of the platform location and measurement was brought to an end.
Goal latency measurements were carried out twice daily (once in the morning, and once in the afternoon) on days 1 to 4. The rat was placed in the pool from the various points A to E with its head facing the wall of the circular pool. […]

[4] = right leg (drug-untreated side)
[5] = Test Group 6: 10 mg/kg oral twice daily 42 days
[6] = Test Group 7: solvent 8 days, then 10 mg/kg oral twice daily 34 days

O=C(O)COc1cccc2c1CCC=C2CCO/N=C(\c1ccccc1)c1cccnc1 [present drug, ({5-[2-({[(1E)-phenyl(pyridin-3-yl)methylene]amino}oxy)ethyl]-7,8-dihydronaphthalen-1-yl}oxy)acetic acid]
number of hippocampal CA1 pyramidal nerve cells relative to the group given the medium (Test Group 3) ([1]; rat 4-VO Test 1, day 42, s.c. twice daily, present drug 10, ornoprostil 0.1, PGE1•αCD 1.5 and 3 mg/kg): significant increase | decrease in the number of hippocampal CA1 region nerve cells relative to Test Group 1 ([1]; rat 4-VO Test 2, Test Group 2: 10 mg/kg oral twice daily, day 8): significant suppression | number of hippocampal CA1 region nerve cells ([1]; rat 4-VO Test 2, Test Group 7: medium up to day 8, 10 mg/kg oral for 34 days from day 9): increasing trend | number of hippocampal CA1 region nerve cells relative to Test Group 4 ([1]; rat 4-VO Test 2, oral 1 mg/kg (Test Group 3)): significant increases | number of hippocampal CA1 region nerve cells relative to Test Group 4 ([1]; rat 4-VO Test 2, oral 10 mg/kg (Test Group 6)): significant increases | left leg nerve conduction velocity relative to Test Group 2 ([2]; after 12 weeks): significant nerve conduction velocity increases | right leg nerve conduction velocity relative to Test Group 2 ([2]; at any of the times): A significant extension effect was not confirmed | Nerve conduction velocity (m/sec) 0 weeks ([2]; left leg (drug-treated side)): 37.5 ± 8.0 m/sec | Nerve conduction velocity (m/sec) 4 weeks ([2]; left leg (drug-treated side)): 37.8 ± 3.8 m/sec | Nerve conduction velocity (m/sec) 8 weeks ([2]; left leg (drug-treated side)): 40.8 ± 3.4 m/sec | Nerve conduction velocity (m/sec) 0 weeks [2, 4]: 38.7 ± 5.0 m/sec | Nerve conduction velocity (m/sec) 4 weeks [2, 4]: 39.0 ± 2.3 m/sec | Nerve conduction velocity (m/sec) 8 weeks [2, 4]: 39.9 ± 2.2 m/sec | Nerve conduction velocity (m/sec) 12 weeks [2, 4]: 41.3 ± 2.1 m/sec | Distance traveled until rat reaches platform, AUC for Days 1 to 4 (average) [3, 5]: 3932.8 ± 1115.1 | Goal latency (seconds) Acquisition trials Day 1 (average) [3, 5]: 71.8 ± 18.3 s | Goal latency (seconds) Acquisition trials Day 2 (average) [3, 5]: 58.8 ± 22.1 s | Goal latency (seconds) Acquisition trials Day 3 (average) [3, 5]: 41.3 ± 28.8 s | Goal latency (seconds) Acquisition trials Day 4 (average) [3, 5]: 33.9 ± 23.2 s | Goal latency (seconds) Acquisition trials Trials 1 to 8 (average) [3, 5]: 51.5 ± 11.9 s | Goal latency, AUC for Days 1 to 4 (average) [3, 5]: 152.9 ± 42.7 | goal latency (seconds) and distance traveled relative to the solvent control group (Test Group 5) ([3]; Test Group 6: oral 10 mg/kg twice daily): significant shortening | goal latency (seconds) and distance traveled relative to the solvent control group (Test Group 5) ([3]; Test Group 7: medium up to day 8, oral 10 mg/kg twice daily from day 9): significant shortening | Distance traveled until rat reaches platform, AUC for Days 1 to 4 (average) [3, 6]: 3850.5 ± 832.5 | Goal latency (seconds) Acquisition trials Day 1 (average) [3, 6]: 73.8 ± 15.2 s | Goal latency (seconds) Acquisition trials Day 2 (average) [3, 6]: 55.4 ± 29.6 s | Goal latency (seconds) Acquisition trials Day 3 (average) [3, 6]: 41.7 ± 26.7 s | Goal latency (seconds) Acquisition trials Day 4 (average) [3, 6]: 25.8 ± 15.2 s | Goal latency (seconds) Acquisition trials Trials 1 to 8 (average) [3, 6]: 49.2 ± 10.1 s | Goal latency, AUC for Days 1 to 4 (average) [3, 6]: 146.9 ± 40.5
